{"source": "patent US12678388B2", "about": "“Dermatological compositions and use thereof” (BONE SCI. BIO LTD., priority 2021, dated 2026)", "assay_type_in_all_cases": "in vivo", "key": {"rats": {"system": "rats", "assay": "Tissue augmentation in subcutaneous rat model", "conditions": "PFD5 3.5% w/v", "method": "The effect of PFD5 3.5% w/v hydrogel on tissue augmentation was tested in a subcutaneous rat model and compared to the effect obtained in rats treated with a commercially available hyaluronic acid dermal filler. Individual rats were treated with 0.2 ml of PFD5 hydrogel or HA injection administered subcutaneously above the parietal bone. Animals were held for three days, one month and four months after which implants were excised and underwent histological examination and analysis for the area occupied by the implant. […] Due to the lower swellability of the PFD5 hydrogel as compared to the HA hydrogel, the area remained more invariable."}, "albino rabbits [1]": {"system": "albino rabbits", "assay": "Intracutaneous reactivity test", "conditions": "for primary irritation index (Treated-Control): 0.2 ml intracutaneous; for erythema and oedema at treated sites: 24, 48 and 72 hours, same in vehicle control sites", "method": "In order to test the potential irritation effects of the formulation according to certain embodiments of the present invention, an intracutaneous reactivity test was performed. Two extracts of a 3% w/v PFD5 hydrogel sample, one in a non-polar vehicle, cottonseed oil, and one in a polar vehicle, sodium chloride injection (0.9%), were prepared by immersing the sample in the relative solvents in order to reach a weight/volume ratio of 0.2 g/ml and incubating at 37±1° C. for 72±2 h in dynamic conditions (orbital stirrer). 0.2 ml of the two extracts and 0.2 ml of the respective solvents were intracutaneously injected in five sites of 3 albino rabbits, and macroscopical skin reactions, as erythema, oedema and eschar were evaluated. No abnormalities immediately after intradermal injection of sodium chloride injection extract and sodium chloride injection (vehicle control) were observed. […] The primary irritation index in sodium chloride injection (Treated-Control) was 0.00. No abnormalities immediately after intradermal injection of cottonseed oil extract and cottonseed oil (vehicle control) were observed. […] The primary irritation index in cottonseed oil (Treated-Control) was 0.00."}, "albino rabbits [2]": {"system": "albino rabbits", "assay": "Implantation test (local implantation effects, femur)", "conditions": "3% w/v PFD5 formulation", "method": "In order to test the local implantation effects of a 3% w/v PFD5 formulation according to certain embodiments of the present invention, an implantation test was performed.\n10 albino rabbits were used for the test: each animal was implanted with the test sample at the right femur and with negative control (USP reference standard control plastic, HDPE) at the left femur, for a total of two sites/animal.\nOne explant time was scheduled after 4 weeks. Animals were daily submitted to general objective exam with the purpose to detect possible local effects due to the sample. The behavior of animals was observed and all abnormalities were recorded. During the explant, all implanted sites with the test sample and with the negative control were harvested and observed macroscopically to determine any injuries. Implantation sites of each animal and local lymph nodes were preserved in formalin 10% buffer solution and used for histological evaluation. […] Nothing abnormal was detected macroscopically in both treated and control sites of all animals."}}, "note": "Peptide text beside a SMILES is read from it."}
{"smiles": "O=C(O)C[C@H](NC(=O)[C@@H]1CCCN1)C(=O)N[C@@H](Cc1ccccc1)C(=O)N[C@@H](CC(=O)O)C(=O)N[C@@H](Cc1ccccc1)C(=O)N[C@@H](CC(=O)O)C(=O)N[C@@H](Cc1ccccc1)C(=O)N[C@@H](CC(=O)O)C(=O)N[C@@H](Cc1ccccc1)C(=O)N[C@@H](CC(=O)O)C(=O)N[C@@H](Cc1ccccc1)C(=O)N[C@@H](CC(=O)O)C(=O)N1CCC[C@H]1C(=O)O", "note": "[PFD5, Pro-(Asp-Phe)5-Asp-Pro] (H-PDFDFDFDFDFDP-OH)", "values": [{"measurement": "adverse tissue reaction (histology)", "setting": "rats", "value": "deprived of multinucleated giant cells or other adverse effects to nearby tissue"}, {"measurement": "primary irritation index (Treated-Control)", "setting": "albino rabbits [1]; cottonseed oil extract of 3% w/v PFD5 hydrogel", "value": 0.00}, {"measurement": "erythema and oedema at treated sites", "setting": "albino rabbits [1]; cottonseed oil extract", "value": "a slight erythema and a slight oedema"}, {"measurement": "primary irritation index (Treated-Control)", "setting": "albino rabbits [1]; sodium chloride injection extract of 3% w/v PFD5 hydrogel", "value": 0.00}, {"measurement": "erythema and oedema at treated sites", "setting": "albino rabbits [1]; sodium chloride injection extract", "value": "no signs of erythema or oedema"}, {"measurement": "inflammatory responses or necrosis at the sites of implantation", "setting": "albino rabbits [2]; 4 weeks", "value": "no inflammatory responses or necrosis"}, {"measurement": "local effects compared to the negative control", "setting": "albino rabbits [2]; 4 weeks after implantation, control HDPE", "value": "Minimal local effects"}]}
